Laboratory results published in US20140357688A1, “METHOD FOR INHIBITING EZH2 EXPRESSION IN BREAST CANCER CELLS” (Yung Shin Pharm. Ind. Co., Ltd., priority 2013, published 2014).

Experiments:
Assay type in all cases: cell-based, human
[1] = tested on: caspase-8, -9, and -3 and PARP; assay: Western blot of caspases and PARP cleavage
Method: (A) Cells were treated with indicated concentration of YC-1 for 6, 24, and 48 h. Cell viability was determined by MTT method. (B) MDA-MB-468 cells were treated with 3 μM YC-1 for 0, 6, and 12 h, and then stained with fluorescence diacetate (FDA) and propidium iodide (PI). Cell morphology was assessed by fluorescence microscopy with magnification ×20 (upper 3 rows) or ×40 (lowest row). (C) MDA-MB-468 cells were treated with 3 μM YC-1 for 24 h, cells were lysed and subjected to western blot analysis described in Materials and Methods. β-actin is a loading control. Blots were representative of results from three independent experiments. (D) Cells were treated with vehicle (DMSO, as control) or 3 μM YC-1 for 6 h. The cell cycles were analyzed by flow cytometry. […]
(A)(B) Cells were treated with indicated concentration of YC-1 for 24 h (A) or 3 μM of YC-1 for indicated time (B). […] The levels of protein expression were quantitated and shown under blots. […] (D)(E) After 4 days of EZH2 knockdown, cells were incubated with 3 μM YC-1 for 4 h and detected cell viability (D) and protein contents (E). […]
(§1) Cells were lysed in PBS containing proteinase inhibitor and phosphatase inhibitors and sonication. Protein concentration was measured using the Bio-Rad protein assay kit (Bio-Rad Laboratories, Hercules, Calif., USA). […] The band intensities were analyzed and quantified by the Multi Gauge software (Fuji Photo Film).

Src, Raf-1, and MEK = assay: Western blot of Src, Raf-1 and MEK activation; conditions: 3 μM YC-1
Method: (A) Cells were pretreated with DMSO (as control), Bay-43-9006 (Bay, 10 μM), farnyesyl thiosalicylic acid (FTS, 10 μM), Src inhibitor I (SrcI, 10 μM), and genistein (Gen, 10 μM), then followed by YC-1 (3 μM) incubation for 6 h. Cells were harvested and lysed for western blot analysis (left, right) and cell viability (middle). The levels of protein expression were quantitated and shown under blots. (B) MDA-MB-468 cells were transfected with shRNA of Raf-1 or Src. After stimulation of 3 μM YC-1 for 4 h, cell protein was subjected to western blot analysis. (C) Cells were incubated with 3 μM YC-1 for indicated time and then lysed for detection of Src, Raf-1, and MEK activation by using specific anti-phosphorylated antibodies. (D) Cells were treated with 3 μM YC-1 for indicated time. Cells were lysed and detected Ras activation by using Raf-RBD conjugated agarose to pull-down Ras-GTP. The total Ras in cell lysate was also detected. […] Cells were lysed and protein expression was determined by western blot analysis. […]
as §1

c-Cbl = assay: Western blot of c-Cbl phosphorylation and expression
Method: (A) c-Cbl knockdown MDA-MB-468 cells were treated with 3 μM YC-1 for 4 h. Cell were harvested for detection of protein expression. (B) Cells were treated with 3 μM YC-1 for indicated time. Cells were collected and c-Cbl phosphorylation was detected. […] (D) Cells were pretreated with MG-132 and followed by 3 μM YC-1 induction for indicated time. Cells were harvested and lysed for immunoprecipitation assay. The association between c-Cbl and EZH2 were determined by western blotting analysis and probed with anti-EZH2 or anti-c-Cbl antibody. Membranes were stripped and reprobed with anti-c-Cbl or anti-EZH2 antibody to check the input. […] Then cells were collected and lysate protein was subjected for the detection of the c-Cbl-EZH2 complexes. Cells were lysed in PBS containing proteinase inhibitor and phosphatase inhibitors and sonication. Protein concentration was measured using the Bio-Rad protein assay kit (Bio-Rad Laboratories, Hercules, Calif., USA). Lysate protein was separated by electrophoresis of SDS-PAGE and transferred to Immobilon P membrane (EMD Millipore). The membranes were incubated with appropriate primary antibodies and horseradish peroxidase-conjugated secondary antibodies (EMD Millipore). The signaling was visualized using Chemiluminescence substrate kit (EMD Millipore) and collected by the Luminesence image analyzer, LAS4000 (Fuji Photo Film Co., Tokyo, Japan). The band intensities were analyzed and quantified by the Multi Gauge software (Fuji Photo Film).

Akt = assay: Western blot of Akt activation; conditions: 3 μM YC-1
Method: (§2) (A) MDA-MB-468 cells were incubated with 3 μM YC-1 for indicated time. Cells were harvested for the detection of phospho-Akt (Ser473), Akt, and PCNA. (B) Cells were pretreated with LY294002 (LY, 10 μM) for 1 h followed by 3 μM YC-1 induction for 6 h. (C) MDA-MB-468 cells were incubated with 3 μM YC-1 for indicated time. Cells were harvested for the detection of phospho-CDK1 (Thr161), CDK1, phospho-EZH2 ([…]), EZH2, and β-actin expression with western blot analysis. Levels of EZH2 phosphorylation were calculated by phospho-EZH2 normalized by total EZH2. (D) Cells were treated with YC-1 for 6 h in the absence or presence of roscovitine (Rosc, 20 μM). Cells were harvested and analyzed by western blotting for protein expression. (E) CDK1 knockdown of MDA-MB-468 cells were induced with 3 μM YC-1 for 4 h and followed by western blot analysis.
as §1, with “USA). Lysate protein was separated by electrophoresis of SDS-PAGE and transferred to Immobilon P membrane (EMD Millipore).” for “USA).”

CDK1 = assay: Western blot of CDK1 activation; conditions: 3 μM YC-1
Method: as §2
as §1, with “USA). Lysate protein was separated by electrophoresis of SDS-PAGE and transferred to Immobilon P membrane (EMD Millipore).” for “USA).”

Compound: OCc1ccc(-c2nn(Cc3ccccc3)c3ccccc23)o1 [YC-1, 3-(5′-hydroxymethyl-2′-furyl)-1-benzyl indazole]
- earliest effects of caspase-3 activation detected ([1]; 3 μM YC-1): 4 h
- cleavage of caspases and PARP ([1]; 3 μM YC-1, 24 h): clearly caused the cleavage of caspases and PARP
- phosphorylated activation of Src, Raf-1, and MEK (Src, Raf-1, and MEK): time-dependent phosphorylated activation
- c-Cbl protein expression (c-Cbl; 3 μM YC-1): inhibited
- c-Cbl Tyr731 and Tyr774 phosphorylation (c-Cbl; 3 μM YC-1, after 1 h): rapid phosphorylation
- Akt activation (Akt): activated
- CDK1 activation (CDK1): could induce the activation
